Entries after “also recorded” stand apart in the source; their conditions may differ.
Columns and labels:
CaMKIIδ = CaMKIIδ (Homo sapiens, UniProt Q13557); assay: in vitro inhibition of CaMKIIδ, bioluminescent ADP monitoring assay (ADP-GLO); format: biochemical; settings: purified polypeptides
Method: FIG. 4 provides a schematic illustrating the design of an in vitro experiment to evaluate the impact of the purified polypeptides described in FIG. 2D and shown in the left portion of FIG. 4 on CaMKIIδ (an isomer of CaMKII) activity. Activity of CaMKIIδ was measured using a bioluminescent and homogeneous ADP monitoring assay for kinases (ADP-GLO™), which is described in Zegzouti, et al. “ADP-Glo: A Bioluminescent and Homogeneous ADP Monitoring Assay for Kinases,” ASSAY and Drug Development Technologies, December 2009, 560-572, doi.org/10.1089/adt.2009.0222, the disclosure of which is incorporated herein by reference in its entirety for all purposes.
Inhibition of CaMKIIδ activity by the polypeptides was evaluated using a bioluminescent and homogeneous ADP monitoring assay for kinases (ADP-GLO™), which is described in Zegzouti, et al. “ADP-Glo: A Bioluminescent and Homogeneous ADP Monitoring Assay for Kinases,” ASSAY and Drug Development Technologies, December 2009, 560-572, doi.org/10.1089/adt.2009.0222, the disclosure of which is incorporated herein by reference in its entirety for all purposes (FIG. 4).

[1] = system: RYR2^R4650I/WT mouse model of CPVT; assay: ectopy and induced VT in RYR2^R4650I/WT mouse model of CPVT, AAV delivery; format: in vivo
Source text: FIGS. 2A-2G provide plots, a protein structure, schematics, a bar graph, and images showing how a therapeutic cargo containing a CaMKII inhibitor was optimized to treat catecholaminergic polymorphic ventricular tachycardia (CPVT) through altering potency, binding, and/or multimerization of the CaMKII inhibitor. FIG. 2A provides plots showing the IC50 concentrations for the autocamtide-2-related inhibitory peptide (AIP) and CN19o (Coultrap, et al. “Improving a Natural CaMKII Inhibitor by Random and Rational Design,” PLoS One, Oct. 3, 2011, doi.org/10.1371/journal.pone.0025245; and Ishida, et al, “Critical amino acid residues of AIP, a highly specific inhibitory peptide of calmodulin-dependent protein kinase II,” FEBS Letters, 427:115-118 (1998), the disclosures of which is incorporated herein by reference in its entirety for all purposes). […]
The development of improved agents for the treatment of CPVT, the CPVT treatment efficacy of polypeptides A) containing multiple repeats of AIP (FIG. 2C) or the potent CaMKII inhibitor CN19o or B) containing AIP or CN19o fused to FKBP12.6 (FIG. 2B), which binds RYR2, which is a target of CaMKII (FIG. 1A). […] The efficacy of the polypeptides in treatment of catecholaminergic polymorphic ventricular tachycardia (CPVT) was evaluated in the RYR2^R4650I/WT mouse model of CPVT as shown in FIG. 2D. […]

Sequence of CaMKIIδ (Q13557 1-478): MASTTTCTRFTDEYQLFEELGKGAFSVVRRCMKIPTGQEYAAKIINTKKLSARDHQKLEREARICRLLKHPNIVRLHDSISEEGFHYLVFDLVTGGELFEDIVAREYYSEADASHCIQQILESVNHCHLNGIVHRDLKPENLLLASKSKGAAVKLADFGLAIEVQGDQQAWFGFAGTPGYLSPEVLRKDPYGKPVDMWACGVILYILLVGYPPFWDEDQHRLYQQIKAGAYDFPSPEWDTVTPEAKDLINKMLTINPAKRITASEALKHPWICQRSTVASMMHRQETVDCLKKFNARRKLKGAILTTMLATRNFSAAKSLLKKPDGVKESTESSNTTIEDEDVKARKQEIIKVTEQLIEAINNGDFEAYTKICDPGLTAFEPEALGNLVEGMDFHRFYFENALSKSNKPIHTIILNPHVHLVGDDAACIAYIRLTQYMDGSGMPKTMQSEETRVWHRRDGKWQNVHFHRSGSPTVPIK

YKKALHRQEAVDALYKKALHRQEAVDALYKKALHRQEAVDALYKKALHRQEAVDALYKKALHRQEAVDAL [AIP×5]
EC50 (CaMKIIδ): 114 nM
percent of mice that showed induced ventricular tachycardia (VT) ([1]; AAV vector (FIG. 2F)): reduction in instances of induced VT
percent ectopy / CPVT treatment efficacy ([1]; RYR2^R4650I/WT mice, AAV vector (FIG. 2E, 2F)): greatest reduction in instances of ectopy; also recorded: most effective in treating CPVT

— patent US20250064983A1, “COMPOSITIONS AND METHODS FOR TREATING A CARDIAC DISEASE” (The Children's Medical Center Corporation, priority 2022, published 2025)
